Measurements as given in US11135320B2, “Radioligands for pretargeted pet imaging and methods of their therapeutic use” (priority 2015, dated 2021).

System: subcutaneous SW1222 xenografts (A33 antigen-expressing human colorectal carcinoma)
Test: Pretargeted biodistribution with huA33-TCO and ^64Cu-tetrazine radioligand
Type: in vivo, athymic nude mice
Protocol: Female athymic nude mice bearing subcutaneous SW1222 (right shoulder) xenografts (100-150 mm^3, 18-21 days post-inoculation) were administered 100 μg (0.66 nmol) huA33-TCO (in 200 μL 0.9% sterile saline) via intravenous tail vein injection. […] The specific activity of the radiotracer was adjusted using cold ^natCu-Tz-SarAr such that the molar ratio of Tzinjected:huA^33injected=1:1. Animals (n=4 per group) were euthanized by CO2(g) asphyxiation at 1, 4, 12, and 24 h after injection. After asphyxiation, 13 tissues were removed, rinsed in water, dried in air for 5 min, weighed, and counted in a gamma counter calibrated for ^64Cu. Counts were converted into activity using a calibration curve generated from known standards. Count data were background- and decay-corrected to the time of injection, and the percent injected dose per gram (% ID/g) for each tissue sample was calculated by normalization to the total activity injected. Contents within the stomach, small intestine, and large intestine were not removed for the measurements.
Contents within the stomach, small intestine, and large intestine were not removed for the measurements. […] Zeglis, B. M. et al. “A pretargeted PET imaging strategy based on bioorthogonal Diels-Alder click chemistry.” Journal of Nuclear Medicine. 54, 1389-1396 (2013). ©2013 by the Society of Nuclear Medicine and Molecular Imaging, Inc.
Zeglis, B. M. et al. “A pretargeted PET imaging strategy based on bioorthogonal Diels-Alder click chemistry.” Journal of Nuclear Medicine. 54, 1389-1396 (2013). ©2013 by the Society of Nuclear Medicine and Molecular Imaging, Inc.
(§1) Female athymic nude mice bearing subcutaneous SW1222 (right shoulder) xenografts (100-150 mm^3, 18-21 days post-inoculation) were administered 100 μg (0.66 nmol) huA33-TCO (in 200 μL 0.9% sterile saline) via intravenous tail vein injection. After an accumulation interval of 48 h, the same mice were then administered ^64Cu-Tz-SarAr (300-350 μCi in 200 μL 0.9% sterile saline) via intravenous tail vein injection (t=0). The specific activity of the radiotracer was adjusted using cold ^natCu-Tz-SarAr such that the molar ratio of Tzinjected:huA^33injected=1:1. Animals (n=4 per group) were euthanized by CO2(g) asphyxiation at 1, 4, 12, and 24 h after injection. After asphyxiation, tissues were removed, rinsed in water, dried in air for 5 min, weighed, and counted in a gamma counter calibrated for ^64Cu. Counts were converted into activity using a calibration curve generated from known standards. Count data were background- and decay-corrected to the time of injection, and the percent injected dose per gram (% ID/g) for each tissue sample was calculated by normalization to the total activity injected. Contents within the stomach, small intestine, and large intestine were not removed for the measurements.
as §1, with “120” for “48”, “Contents within the stomach, small intestine, and large intestine were not removed for the measurements.” left out

[1] = 48 h accumulation interval, 12 h p.i.
[2] = 48 h accumulation interval, 24 h p.i.
[3] = 120 h accumulation interval, 1 h p.i.

## NC12CNCCNCC(NCc3ccc(CNC(=O)CCCC(=O)NCc4ccc(-c5nncnn5)cc4)cc3)(CNCCNC1)CNCCNC2.[64Cu+2] [^64Cu-Tz-SarAr]
[1]
  Blood activity concentration: 1.81 ± 0.54 % ID/g
  Bone activity concentration: 0.3 ± 0.07 % ID/g
  Heart activity concentration: 0.88 ± 0.33 % ID/g
  Kidney activity concentration: 2.04 ± 0.36 % ID/g
  Large Intestine activity concentration: 0.22 ± 0.08 % ID/g
  Liver activity concentration: 1.08 ± 0.32 % ID/g
  Lung activity concentration: 1.00 ± 0.18 % ID/g
  Muscle activity concentration: 0.15 ± 0.02 % ID/g
  Small Intestine activity concentration: 0.3 ± 0.08 % ID/g
  Spleen activity concentration: 0.56 ± 0.11 % ID/g
  Stomach activity concentration: 0.12 ± 0.04 % ID/g
  Tumor activity concentration: 4.94 ± 1.12 % ID/g
  Tumor/Blood activity concentration ratio: 2.72 ± 1.03
  Tumor/Bone activity concentration ratio: 16.24 ± 5.16
  Tumor/Heart activity concentration ratio: 5.62 ± 2.47
  Tumor/Kidney activity concentration ratio: 2.42 ± 0.7
  Tumor/Large Intestine activity concentration ratio: 22.66 ± 10.19
  Tumor/Liver activity concentration ratio: 4.58 ± 1.69
  Tumor/Lung activity concentration ratio: 4.94 ± 1.45
  Tumor/Muscle activity concentration ratio: 33.88 ± 9.31
  Tumor/Small Intestine activity concentration ratio: 16.47 ± 5.62
  Tumor/Spleen activity concentration ratio: 8.75 ± 2.61
  Tumor/Stomach activity concentration ratio: 41.88 ± 18.35
[2]
  Blood activity concentration: 0.92 ± 0.31 % ID/g
  Bone activity concentration: 0.18 ± 0.05 % ID/g
  Heart activity concentration: 0.45 ± 0.08 % ID/g
  Kidney activity concentration: 1.47 ± 0.43 % ID/g
  Large Intestine activity concentration: 0.16 ± 0.03 % ID/g
  Liver activity concentration: 1.28 ± 0.33 % ID/g
  Lung activity concentration: 1.05 ± 0.51 % ID/g
  Muscle activity concentration: 0.11 ± 0.04 % ID/g
  Small Intestine activity concentration: 0.22 ± 0.07 % ID/g
  Spleen activity concentration: 0.5 ± 0.1 % ID/g
  Stomach activity concentration: 0.15 ± 0.03 % ID/g
  Tumor activity concentration: 4.85 ± 0.67 % ID/g
  Tumor/Blood activity concentration ratio: 5.27±1.92
  Tumor/Bone activity concentration ratio: 26.55 ± 7.58
  Tumor/Heart activity concentration ratio: 10.9 ± 2.55
  Tumor/Kidney activity concentration ratio: 3.31 ± 1.07
  Tumor/Large Intestine activity concentration ratio: 29.58 ± 6.11
  Tumor/Liver activity concentration ratio: 3.8 ± 1.11
  Tumor/Lung activity concentration ratio: 4.61 ± 2.32
  Tumor/Muscle activity concentration ratio: 44.18 ± 17.61
  Tumor/Small Intestine activity concentration ratio: 21.72 ± 7.59
  Tumor/Spleen activity concentration ratio: 9.8 ± 2.47
  Tumor/Stomach activity concentration ratio: 32.81 ± 8.37
[3]
  Blood activity concentration: 1.39 ± 0.19 % ID/g
  Bone activity concentration: 0.21 ± 0.03 % ID/g
  Heart activity concentration: 0.52 ± 0.06 % ID/g
  Kidney activity concentration: 1.80 ± 0.12 % ID/g
  Large Intestine activity concentration: 0.29 ± 0.16 % ID/g
  Liver activity concentration: 1.65 ± 0.07 % ID/g
  Lung activity concentration: 1.41 ± 0.21 % ID/g
  Muscle activity concentration: 0.20 ± 0.03 % ID/g
  Small Intestine activity concentration: 0.34 ± 0.03 % ID/g
  Spleen activity concentration: 0.60 ± 0.13 % ID/g
  Stomach activity concentration: 0.32 ± 0.13 % ID/g
  Tumor activity concentration: 3.61 ± 0.45 % ID/g
  Tumor/Blood activity concentration ratio: 2.61 ± 0.48
  Tumor/Bone activity concentration ratio: 17.27 ± 3.03
  Tumor/Heart activity concentration ratio: 7.00 ± 1.22
  Tumor/Kidney activity concentration ratio: 2.01 ± 0.29
  Tumor/Large Intestine activity concentration ratio: 12.39 ± 7.14
  Tumor/Liver activity concentration ratio: 2.19 ± 0.29
  Tumor/Lung activity concentration ratio: 2.55 ± 0.49
  Tumor/Muscle activity concentration ratio: 18.41 ± 3.47
  Tumor/Small Intestine activity concentration ratio: 10.53 ± 1.58
  Tumor/Spleen activity concentration ratio: 6.02 ± 1.46
  Tumor/Stomach activity concentration ratio: 11.37 ± 4.88
